Where two headings read alike, the source gives them in different places.
System: Crl:CD (SD) Br (VAFplus) female rats with spontaneous renal pathology, including mineralization
Settings: 104 weeks; for rats with evidence of pelvic/papillary mineralization / rats with evidence of transitional cell hyperplasia in kidneys: n=60; for rats with evidence of pelvic/papillary mineralization: undosed rats approx. 50% (n=120); for rats with evidence of transitional cell hyperplasia in kidneys: undosed rats approx. 63% (n=120)
Procedure: Crl:CD (SD) Br (VAFplus) female rats (available from Charles River Laboratories in Wilmington, Mass.) were orally dosed once daily with 0, 100, 500, or 1500 mg (salt)/kg of lanthanum carbonate for 104 weeks. Crl:CD (SD) Br (VAFplus) female rats develop spontaneous renal pathology, including mineralization, as they age. At week 105, the pathological examination of the kidneys of these rats was performed.
Transitional cell hyperplasia is a response to trauma caused by the unnatural presence of mineral in the tissue, thus mineralization and hyperplasia are closely linked.

## O=C([O-])[O-].O=C([O-])[O-].O=C([O-])[O-].[La+3].[La+3] [lanthanum carbonate]
100 mg (salt)/kg/day oral
  rats with evidence of pelvic/papillary mineralization: ~35%
  rats with evidence of transitional cell hyperplasia in kidneys: ~48%
500 mg (salt)/kg/day oral
  rats with evidence of pelvic/papillary mineralization: ~5%
  rats with evidence of transitional cell hyperplasia in kidneys: ~23%
1500 mg (salt)/kg/day oral
  rats with evidence of pelvic/papillary mineralization: ~1.7%
  rats with evidence of transitional cell hyperplasia in kidneys: ~7%
Oral administration, 100-1500 mg (salt)/kg/day
  effect on renal calcification (study conclusion): reduces renal calcification
